Measurements: US20250206722A1, “SMALL MOLECULE INHIBITORS OF TEA DOMAIN FAMILY MEMBERS” (The Scripps Research Institute, priority 2022, published 2025)

Key:
[1] = system: transcriptional activity of TEADs; assay: TEAD reporter assay (MCF7 TEAD-LUC reporter cells); assay type: cell-based; conditions: Homo sapiens, 24 hours, BrightGlo luminescence
Method: MCF7 TEAD-LUC reporter cells were obtained from BPS Bioscience, Inc. and cultured in DMEM medium (Corning, 10-013-CV) supplemented with 10% fetal bovine serum (Gibco, 10438-026), 1% penicillin-streptomycin (Gibco, 15070063), 1% non-essential amino acids (Gibco, 15070063), and 10 μg/mL insulin (Sigma, 10516). Cells were trypsinized, resuspended in growth medium, and diluted to a concentrated of 100,000 cells/mL. 5,000 cells, 50 μL of cell suspension, per well were then plated in a white 384-well plate (Corning) and incubated at 37° C., 5% CO2. After 24 hours incubation, 100 nL of test compounds in DMSO, 20-point 1:2 dilution starting from 20 μM (final concentration) in triplicate, were transferred to each well using an Agilent Bravo instrument outfitted with a pintool head. Cells were incubated at 37° C., 5% CO2 for 24 hours followed by the addition of 30 μL of BrightGlo (Promega; diluted 1:3 in water) to each well and luminescence values recorded using an EnVision plate reader.
The in vitro assay results of the compounds in the present invention were included in Table 1. The compounds described herein, inhibited the transcriptional activity of TEADs, as assessed by decreased luminance from a TEAD reporter cell line (MCF7 TEAD-LUC) in response to compound treatment.

[2] = system: NCI-H226 cells; assay: NCI-H226 proliferation assay (in house); assay type: cell-based; conditions: Homo sapiens, 120 h, 5 days, Cell TiterGlo, 20-point 1:2 dilution from 20 μM
Method: NCI-H226 Proliferation Assay
NCI-H226 cells were obtained from American Type Culture Collection (ATCC, CRL-5826) and cultured in RPMI 1640 with L-glutamine (Corning, 10-040-CV) supplemented with 10% fetal bovine serum (Gibco, 10438-026) and 1% penicillin-streptomycin (Gibco, 15070063). Cells were trypsinized, resuspended in growth medium, and diluted to a concentrated of 10,000 cells/mL. 500 cells, 50 μL of cell suspension, per well were then plated in a white 384-well plate (Corning) and incubated at 37° C., 5% CO2. After 24 hours incubation, 100 nL of test compounds in DMSO, 20-point 1:2 dilution starting from 20 μM (final concentration) in triplicate, were transferred to each well using an Agilent Bravo instrument outfitted with a pintool head. Cells were incubated at 37° C., 5% CO2 for 5 days followed by the addition of 30 μL of Cell TiterGlo (Promega; diluted 1:6 in water) to each well and luminescence values recorded using an EnVision plate reader. […]

SMILES	IC50 [1]	IC50 [2]
C=CC(=O)N1CCN(c2nccnc2Nc2ccc(C(F)(F)F)cc2)C[C@H]1C(N)=O [Example 19, (S)-1-acryloyl-4-(3-((4-(trifluoromethyl)phenyl)amino)pyrazin-2-yl)piperazine-2-carboxamide]	> 20000 nM	> 20 µM
C=CC(=O)N1CCC(c2cccnc2Nc2ccc(C(F)(F)F)nc2)CC1 [Example 149, 1-(4-(2-((6-(trifluoromethyl)pyridin-3-yl)amino)pyridin-3-yl)piperidin-1-yl)prop-2-en-1-one]	164 nM	2.71 µM
C=CC(=O)N1CCN(c2ncccc2C(=O)c2ccc(C(F)(F)F)nc2)CC1 [Example 141, 1-(4-(3-(6-(trifluoromethyl)nicotinoyl)pyridin-2-yl)piperazin-1-yl)prop-2-en-1-one]	7.5 nM	0.5 µM
C=C(F)C(=O)N1CC=C(c2ncccc2Oc2ccc(C(F)(F)F)nc2)CC1 [Example 137, 2-fluoro-1-(3-((6-(trifluoromethyl)pyridin-3-yl)oxy)-3′,6′-dihydro-[2,4′-bipyridin]-1′(2′H)-yl)prop-2-en-1-one]	22 nM	0.243 µM
C=CC(=O)N1CCN(c2nccnc2Nc2ccc(C(F)F)cn2)CC1 [Example 40, 1-(4-(3-((5-(difluoromethyl)pyridin-2-yl)amino)pyrazin-2-yl)piperazin-1-yl)prop-2-en-1-one]	4 nM	> 20 µM
C=CC(=O)N1CCN(c2nccnc2C(=O)N2CCC(F)(F)CC2)CC1 [Example 104, 1-(4-(3-(4,4-difluoropiperidine-1-carbonyl)pyrazin-2-yl)piperazin-1-yl)prop-2-en-1-one]	2220 nM	2.74 µM
C=CC(=O)N1CCC(c2nccnc2Nc2ccc(C(F)(F)F)nc2)CC1 [Example 61, 1-(4-(3-((6-(trifluoromethyl)pyridin-3-yl)amino)pyrazin-2-yl)piperidin-1-yl)prop-2-en-1-one]	5 nM	0.257 µM
C=CC(=O)N1CC=C(c2ncccc2Oc2ccc(C(F)(F)F)nc2)CC1 [Example 136, 1-(3-((6-(trifluoromethyl)pyridin-3-yl)oxy)-3′,6′-dihydro-[2,4′-bipyridin]-1′(2′H)-yl)prop-2-en-1-one]	66 nM	0.341 µM

Next, values leading:

IC50 [1]	IC50 [2]	SMILES
13500 nM	22.2 µM	C=C(F)C(=O)N1CCC(c2cccnc2Nc2ccc(OC(F)(F)F)nc2)CC1 [Example 152, 2-fluoro-1-(4-(2-((6-(trifluoromethoxy)pyridin-3-yl)amino)pyridin-3-yl)piperidin-1-yl)prop-2-en-1-one]
238 nM	> 20 µM	C=C(F)C(=O)NCC1CN(c2ccc(C(F)(F)F)nc2)c2nccnc2N1 (stereo not shown) [Example 194]
> 20000 nM	> 20 µM	O=C(C(O)CO)N1CCN(c2nccnc2Nc2ccc(C(F)(F)F)cc2)CC1 (stereo not shown) [Example 180, 2,3-dihydroxy-1-(4-(3-((4-(trifluoromethyl)phenyl)amino)pyrazin-2-yl)piperazin-1-yl)propan-1-one]
10000 nM	5 µM	C=CC(=O)N1CCC(n2ccc(C(=O)c3ccc(C(F)(F)F)cc3)n2)CC1 [Example 163, 1-(4-(3-(4-(trifluoromethyl)benzoyl)-1H-pyrazol-1-yl)piperidin-1-yl)prop-2-en-1-one]
3.9 nM	0.027 µM	C=C(F)C(=O)N1CC=C(c2cccnc2Oc2cnc(C(F)(F)F)nc2)CC1 [Example 158, 2-fluoro-1-(2-((2-(trifluoromethyl)pyrimidin-5-yl)oxy)-3′,6′-dihydro-[3,4′-bipyridin]-1′(2′H)-yl)prop-2-en-1-one]
13.7 nM	0.083 µM	C=C(F)C(=O)N1CCC(c2cccnc2Oc2ccc(C(F)(F)F)nc2)CC1 [Example 156, 2-fluoro-1-(4-(2-((6-(trifluoromethyl)pyridin-3-yl)oxy)pyridin-3-yl)piperidin-1-yl)prop-2-en-1-one]
